US20160289186A1, “FLUOROMETHYL-SUBSTITUTED PYRROLE CA[…]” (Grunenthal GmbH, priority 2013, published 2016)

Molecular target: T1, Human CaV2.2 channels (Homo sapiens, UniProt Q00975)
T1 construct: expressed in transfected cells; host or cells: HEK293
Experiment: Fluorescent (FLIPR) assay for CaV2.2 channels using potassium depolarization to induce channel opening
Format: cell-based
Details: 3 μM compound, 30 mM KCl assay buffer (inactivated channel state), HEK293 cells stably expressing human CaV2.2; for inhibition at 3 µM: read-out: Activity Category: %-Inhib (CaV2.2) @3 μM @30 mM KCl
From the text: In the process, the Ca^2+ influx is quantified in the FLIPR assay with the aid of a Ca^2+-sensitive dye (type Fluo-4, Molecular Probes Europe BV, Leiden, the Netherlands) in a fluorescent imaging plate reader (FLIPR 3, Molecular Devices, Sunnyvale, USA), as described hereinafter.
Human CaV2.2 channels were stably expressed in HEK293 cells together with alpha2-delta and beta subunits of voltage gated calcium channels. In addition, an inwardly rectifying potassium channel (Kir2.3) was stably expressed in these cells to augment control of the cell membrane potential by the concentration of extracellular potassium ions. Raise of the extracellular potassium concentration leads to depolarization of the membrane potential and thus regulates the voltage dependent state of CaV2.2 channels. For preparation, cells were seeded in black poly-D-lysine coated 96-well plates (Becton Dickinson, Biocoat 4640) in 100 μL medium [500 mL DMEM/F-12 plus Glutamax (Invitrogen 31331-093) plus 5.5 mL MEM NEAA 100× (Invitrogen 11140-035) plus 50 mL FBS decomplemented (Invitrogen 10270-106) plus 200 μg/mL Geneticin (Invitrogen 10131-027) plus 50 μg/mL Hygromycin B (Invitrogen 10687-010) plus 2 μg/mL Blasticidin (anti-bl5b Invivo-Gen) plus 0.2 μg/mL Puromycin (A 11138-03)] at a cell density of 30.000 cells per well. Plates were incubated at 37° C. (5% CO2) for 20 to 23 h. On the day of experiment medium was discarded and cells were loaded with Fluo 4 by addition of 100 μL of basic assay buffer (10 mM HEPES, 1 mM KCl, 149 mM NaCl, 0.8 mM CaCl2, 1.7 mM MgCl2, 10 mM Glucose, 0.1% BSA. pH 7.4) containing 2 μM Fluo 4 (Molecular Probes; F-14201), 0.01% pluronic acid (Molecular Probes; P-6866) and 2.5 mM probenecid (Molecular Probes; P36400). Cells were incubated in the dark at 25° C. for 60 min. Then dye containing buffer was discarded and 100 μL basic (1 mM KCl) or alternative (30 mM KCl) assay buffer was added. The alternative assay buffer contained altered concentrations of KCl (30 mM) and NaCl (120 mM) and was used in order to promote the inactivated channel state. After that 25 μL of basic or alternative assay buffer with or without test compound were added and cells were incubated again in the dark at 25° C. for 15 min. Fluorescence intensity was measured on a FLIPR 3 instrument (Molecular Devices Corp., Sunnyvale, Calif.) with excitation at 480 nm and emission at 535 nm. After continuously reading fluorescence for 30 sec, 50 μL of basic assay buffer containing 210 mM KCl (NaCl omitted) were added for depolarization. Peak fluorescent signal intensity was determined and the amplitude of the peak signal, normalized to base line, was used to measure channel inhibition by test compounds.

T1 sequence (Q00975 whole entry): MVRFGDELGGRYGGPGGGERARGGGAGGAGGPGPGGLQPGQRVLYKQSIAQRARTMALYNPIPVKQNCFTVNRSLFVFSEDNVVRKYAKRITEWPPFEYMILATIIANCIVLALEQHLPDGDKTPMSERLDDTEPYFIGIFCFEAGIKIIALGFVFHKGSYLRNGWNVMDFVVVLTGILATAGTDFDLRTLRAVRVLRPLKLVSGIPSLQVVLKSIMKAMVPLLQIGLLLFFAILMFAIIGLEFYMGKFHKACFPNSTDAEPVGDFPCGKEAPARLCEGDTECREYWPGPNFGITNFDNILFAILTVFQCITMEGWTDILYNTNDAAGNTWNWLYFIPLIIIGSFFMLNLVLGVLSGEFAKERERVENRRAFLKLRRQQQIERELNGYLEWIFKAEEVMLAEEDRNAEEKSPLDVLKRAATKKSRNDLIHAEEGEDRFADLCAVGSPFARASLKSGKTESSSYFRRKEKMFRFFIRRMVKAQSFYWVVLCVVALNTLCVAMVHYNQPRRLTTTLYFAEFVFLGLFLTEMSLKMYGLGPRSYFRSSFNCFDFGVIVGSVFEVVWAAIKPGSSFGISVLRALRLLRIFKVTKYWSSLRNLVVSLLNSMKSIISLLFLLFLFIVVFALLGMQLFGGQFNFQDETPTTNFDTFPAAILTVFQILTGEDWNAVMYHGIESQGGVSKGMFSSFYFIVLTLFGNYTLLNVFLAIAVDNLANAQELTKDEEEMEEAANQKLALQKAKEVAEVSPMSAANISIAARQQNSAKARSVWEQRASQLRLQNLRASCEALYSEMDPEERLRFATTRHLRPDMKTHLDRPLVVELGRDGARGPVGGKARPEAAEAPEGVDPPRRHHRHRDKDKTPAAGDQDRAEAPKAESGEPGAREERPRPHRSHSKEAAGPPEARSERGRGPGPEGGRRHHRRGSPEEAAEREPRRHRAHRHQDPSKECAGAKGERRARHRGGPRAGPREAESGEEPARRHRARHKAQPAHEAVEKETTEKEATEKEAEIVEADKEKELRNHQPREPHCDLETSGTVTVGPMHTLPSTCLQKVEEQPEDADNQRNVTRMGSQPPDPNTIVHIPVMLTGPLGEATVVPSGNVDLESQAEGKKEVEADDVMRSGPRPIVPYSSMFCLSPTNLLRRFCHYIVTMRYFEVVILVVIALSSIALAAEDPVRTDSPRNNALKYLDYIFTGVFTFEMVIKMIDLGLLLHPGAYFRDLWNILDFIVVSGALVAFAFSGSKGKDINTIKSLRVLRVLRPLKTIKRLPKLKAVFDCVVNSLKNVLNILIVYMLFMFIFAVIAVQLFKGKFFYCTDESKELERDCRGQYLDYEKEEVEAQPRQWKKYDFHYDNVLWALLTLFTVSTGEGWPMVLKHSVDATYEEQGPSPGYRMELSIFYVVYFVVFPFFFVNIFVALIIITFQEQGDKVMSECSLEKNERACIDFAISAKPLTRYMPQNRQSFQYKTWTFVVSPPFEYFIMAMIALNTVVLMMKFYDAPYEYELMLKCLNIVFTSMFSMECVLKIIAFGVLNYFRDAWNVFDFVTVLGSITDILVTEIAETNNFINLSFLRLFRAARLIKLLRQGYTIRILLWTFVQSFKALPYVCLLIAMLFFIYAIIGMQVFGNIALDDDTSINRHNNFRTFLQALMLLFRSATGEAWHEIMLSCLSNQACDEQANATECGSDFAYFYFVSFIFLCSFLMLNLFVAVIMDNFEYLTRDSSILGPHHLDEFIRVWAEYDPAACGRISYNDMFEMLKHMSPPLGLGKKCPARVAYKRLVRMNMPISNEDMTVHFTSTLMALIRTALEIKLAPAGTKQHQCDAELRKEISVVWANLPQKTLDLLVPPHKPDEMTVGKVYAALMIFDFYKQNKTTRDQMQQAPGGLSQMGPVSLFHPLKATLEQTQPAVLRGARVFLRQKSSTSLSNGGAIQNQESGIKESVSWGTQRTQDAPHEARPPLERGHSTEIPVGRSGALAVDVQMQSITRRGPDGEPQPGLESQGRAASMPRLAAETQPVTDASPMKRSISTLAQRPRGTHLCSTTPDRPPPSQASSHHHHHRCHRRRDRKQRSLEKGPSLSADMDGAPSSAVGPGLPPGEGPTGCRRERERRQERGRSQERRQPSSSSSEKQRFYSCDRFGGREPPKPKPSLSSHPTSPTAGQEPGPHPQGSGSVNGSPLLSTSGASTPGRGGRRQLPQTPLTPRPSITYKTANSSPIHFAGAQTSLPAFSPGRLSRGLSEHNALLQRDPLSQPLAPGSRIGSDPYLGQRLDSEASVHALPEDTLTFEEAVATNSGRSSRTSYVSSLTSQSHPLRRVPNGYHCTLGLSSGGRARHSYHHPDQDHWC
T1 sequence (P54284 whole entry, further chain): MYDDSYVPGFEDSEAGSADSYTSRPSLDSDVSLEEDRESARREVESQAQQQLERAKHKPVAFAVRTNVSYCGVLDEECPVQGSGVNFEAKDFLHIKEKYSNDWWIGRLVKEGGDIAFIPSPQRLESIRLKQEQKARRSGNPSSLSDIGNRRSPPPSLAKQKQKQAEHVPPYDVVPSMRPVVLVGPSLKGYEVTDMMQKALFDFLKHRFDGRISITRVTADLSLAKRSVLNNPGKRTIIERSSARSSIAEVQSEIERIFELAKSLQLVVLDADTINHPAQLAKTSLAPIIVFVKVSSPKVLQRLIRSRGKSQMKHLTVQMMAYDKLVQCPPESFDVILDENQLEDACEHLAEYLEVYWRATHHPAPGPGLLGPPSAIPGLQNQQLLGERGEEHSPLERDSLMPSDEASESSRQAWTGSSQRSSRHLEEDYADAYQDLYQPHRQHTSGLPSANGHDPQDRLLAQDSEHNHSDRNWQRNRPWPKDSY
T1 sequence (P54289 25-1103, further chain): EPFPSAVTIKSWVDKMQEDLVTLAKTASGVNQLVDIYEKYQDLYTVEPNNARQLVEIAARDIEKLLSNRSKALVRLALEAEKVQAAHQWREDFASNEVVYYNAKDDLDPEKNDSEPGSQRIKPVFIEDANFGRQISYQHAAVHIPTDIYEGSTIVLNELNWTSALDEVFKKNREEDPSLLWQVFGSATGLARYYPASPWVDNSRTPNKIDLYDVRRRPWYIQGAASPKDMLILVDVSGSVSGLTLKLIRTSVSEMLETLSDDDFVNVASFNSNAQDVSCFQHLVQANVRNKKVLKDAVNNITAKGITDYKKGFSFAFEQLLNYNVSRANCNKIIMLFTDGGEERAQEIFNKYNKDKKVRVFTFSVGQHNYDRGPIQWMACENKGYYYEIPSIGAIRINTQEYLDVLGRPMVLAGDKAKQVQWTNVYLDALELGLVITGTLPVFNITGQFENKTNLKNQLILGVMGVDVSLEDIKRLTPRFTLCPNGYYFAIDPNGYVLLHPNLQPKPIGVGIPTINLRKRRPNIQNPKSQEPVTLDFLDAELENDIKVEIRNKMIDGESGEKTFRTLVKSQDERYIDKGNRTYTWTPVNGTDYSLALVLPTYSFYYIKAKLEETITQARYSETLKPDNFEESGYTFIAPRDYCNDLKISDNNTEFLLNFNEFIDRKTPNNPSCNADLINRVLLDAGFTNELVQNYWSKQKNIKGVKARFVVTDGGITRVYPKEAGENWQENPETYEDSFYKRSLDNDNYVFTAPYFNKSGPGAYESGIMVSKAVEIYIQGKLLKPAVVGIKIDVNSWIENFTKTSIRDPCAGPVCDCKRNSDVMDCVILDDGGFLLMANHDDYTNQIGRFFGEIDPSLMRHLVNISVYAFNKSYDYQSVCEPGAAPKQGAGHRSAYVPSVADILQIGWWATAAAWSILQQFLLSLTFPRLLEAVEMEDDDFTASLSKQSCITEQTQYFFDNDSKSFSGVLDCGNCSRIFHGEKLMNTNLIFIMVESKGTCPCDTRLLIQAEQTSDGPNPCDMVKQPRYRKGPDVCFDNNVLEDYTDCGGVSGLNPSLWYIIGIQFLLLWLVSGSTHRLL

| Compound | inhibition at 3 µM [%] | Activity Category: %-Inhib (CaV2.2) @3 μM @30 mM KCl |
| --- | --- | --- |
| Cc1c(-c2ccc(Cl)cc2)c(C(=O)N(C)C2(C(N)=O)CC2)n(CC(C)C)c1C(F)(F)F [Example 051, N-(1-Carbamoyl-cyclopropyl)-3-(4-chlorophenyl)-N,4-dimethyl-1-(2-methyl-propyl)-5-(trifluoromethyl)-1H-pyrrole-2-carboxylic acid amide] | > 95 |  |
| Cc1c(-c2ccc(Cl)cc2)c(C(=O)N(C)CC(C)(C)C(N)=O)n(CC(C)C)c1C(F)(F)F [Example 052, N-(2-Carbamoyl-2-methyl-propyl)-3-(4-chlorophenyl)-N,4-dimethyl-1-(2-methyl-propyl)-5-(trifluoromethyl)-1H-pyrrole-2-carboxylic acid amide] | 75 to 95 |  |
| CC(C)Cn1c(C(F)(F)F)cc(-c2ccc(F)cc2)c1C(=O)N(C)CC(C)(C)C [Example 053, N-(2,2-Dimethyl-propyl)-3-(4-fluorophenyl)-N-methyl-1-(2-methyl-propyl)-5-(trifluoromethyl)-1H-pyrrole-2-carboxylic acid amide] | 40 to 75 |  |
| CC(C)Cn1c(C(F)(F)F)cc(-c2ccc(F)cc2)c1C(=O)N(C)CC(C)(C)CN1CCOCC1 [Example 054, N-(2,2-Dimethyl-3-morpholin-4-yl-propyl)-3-(4-fluorophenyl)-N-methyl-1-(2-methyl-propyl)-5-(trifluoromethyl)-1H-pyrrole-2-carboxylic acid amide] | 75 to 95 |  |
| Cc1c(-c2ccc(Cl)cc2)c(C(=O)N(C)CC(C)(C)CO)n(CC(C)C)c1C(F)(F)F [Example 055, 3-(4-Chlorophenyl)-N-(3-hydroxy-2,2-dimethyl-propyl)-N,4-dimethyl-1-(2-methyl-propyl)-5-(trifluoromethyl)-1H-pyrrole-2-carboxylic acid amide] | > 95 |  |
| CC(C)Cn1c(C(F)(F)F)cc(-c2ccc(F)cc2)c1C(=O)N(C)CC(C)(C)CO [Example 056, 3-(4-Fluorophenyl)-N-(3-hydroxy-2,2-dimethyl-propyl)-N-methyl-1-(2-methyl-propyl)-5-(trifluoromethyl)-1H-pyrrole-2-carboxylic acid amide] | 75 to 95 |  |
| Cc1cc(CN(C)C(=O)c2c(-c3ccc(Cl)cc3)c(C)c(C(F)(F)F)n2CC(C)C)no1 [Example 057, 3-(4-Chlorophenyl)-N,4-dimethyl-N-[(5-methyl-isoxazol-3-yl)-methyl]-1-(2-methyl-propyl)-5-(trifluoromethyl)-1H-pyrrole-2-carboxylic acid amide] | > 95 |  |
| CC(C)Cn1c(C(F)(F)F)cc(-c2ccc(F)cc2)c1C(=O)N(C)CC1CCOC1 (centres unmarked) [Example 058, 3-(4-Fluorophenyl)-N-methyl-1-(2-methyl-propyl)-N-(tetrahydro-furan-3-yl-methyl)-5-(trifluoromethyl)-1H-pyrrole-2-carboxylic acid amide] | > 95 |  |
| Cc1cnc(CN(C)C(=O)c2c(-c3ccc(Cl)cc3)c(C)c(C(F)(F)F)n2CC(C)C)cn1 [Example 059, 3-(4-Chlorophenyl)-N,4-dimethyl-1-(2-methyl-propyl)-N-[(5-methyl-pyrazin-2-yl)-methyl]-5-(trifluoromethyl)-1H-pyrrole-2-carboxylic acid amide] | > 95 |  |
| CC(C)Cn1c(C(F)(F)F)cc(-c2ccc(F)cc2)c1C(=O)N(C)Cc1cnc(N(C)C)nc1 [Example 060] |  | A (%-Inhibition >95%) |
| Cc1c(-c2ccc(Cl)cc2)c(C(=O)N(C)CCS(C)(=O)=O)n(CC(C)C)c1C(F)(F)F [Example 061, 3-(4-Chlorophenyl)-N,4-dimethyl-1-(2-methyl-propyl)-N-(2-methylsulfonyl-ethyl)-5-(trifluoromethyl)-1H-pyrrole-2-carboxylic acid amide] | > 95 |  |
| Cc1noc(C2CCN(C(=O)c3c(-c4ccc(Cl)cc4)c(C)c(C(F)(F)F)n3CC(C)C)CC2)n1 [Example 062, [3-(4-Chlorophenyl)-4-methyl-1-(2-methyl-propyl)-5-(trifluoromethyl)-1H-pyrrol-2-yl]-[4-(3-methyl-[1,2,4]oxadiazol-5-yl)-piperidin-1-yl]-methanone] | 75 to 95 |  |
| CC(C)Cn1c(C(F)(F)F)cc(-c2ccc(F)cc2)c1C(=O)N1CCNC(=O)C1 [Example 063, 4-[3-(4-Fluorophenyl)-1-(2-methyl-propyl)-5-(trifluoromethyl)-1H-pyrrole-2-carbonyl]-piperazin-2-one] | 40 to 75 |  |
| Cc1c(-c2ccc(Cl)cc2)c(C(=O)N2CCOC(C)(C)C2)n(CC(C)C)c1C(F)(F)F [Example 064, [3-(4-Chlorophenyl)-4-methyl-1-(2-methyl-propyl)-5-(trifluoromethyl)-1H-pyrrol-2-yl]-(2,2-dimethyl-morpholin-4-yl)-methanone] | 75 to 95 |  |
| CC(C)Cn1c(C(F)(F)F)cc(-c2ccc(F)cc2)c1C(=O)N1CCOCC1 [Example 065, [3-(4-Fluorophenyl)-1-(2-methyl-propyl)-5-(trifluoromethyl)-1H-pyrrol-2-yl]-morpholin-4-yl-methanone] | 75 to 95 |  |
| CC(C)Cn1c(C(F)(F)F)cc(-c2ccc(F)cc2)c1C(=O)NC1CC1 [Example 066, N-Cyclopropyl-3-(4-fluorophenyl)-1-(2-methyl-propyl)-5-(trifluoromethyl)-1H-pyrrole-2-carboxylic acid amide] | 75 to 95 |  |
| Cc1c(-c2ccc(Cl)cc2)c(C(=O)N(C)CC(C)(C)C#N)n(CC(C)C)c1C(F)(F)F [Example 067, 3-(4-Chlorophenyl)-N-(2-cyano-2-methyl-propyl)-N,4-dimethyl-1-(2-methyl-propyl)-5-(trifluoromethyl)-1H-pyrrole-2-carboxylic acid amide] | 40 to 75 |  |
| Cc1c(-c2ccc(Cl)cc2)c(C(=O)N(C)CCS(C)(=O)=O)n(CC2(C)CC2)c1C(F)(F)F [Example 068, 3-(4-Chlorophenyl)-N,4-dimethyl-1-[(1-methyl-cyclopropyl)-methyl]-N-(2-methylsulfonyl-ethyl)-5-(trifluoromethyl)-1H-pyrrole-2-carboxylic acid amide] | > 95 |  |
| CN(Cc1cnc(N(C)C)nc1)C(=O)c1c(-c2ccc(F)cc2)cc(C(F)(F)F)n1CC1CCCO1 (centres unmarked) [Example 069, N-[(2-Dimethylamino-pyrimidin-5-yl)-methyl]-3-(4-fluorophenyl)-N-methyl-1-(tetrahydro-furan-2-yl-methyl)-5-(trifluoromethyl)-1H-pyrrole-2-carboxylic acid amide] | 75 to 95 |  |
| CN(C(=O)c1c(-c2ccc(F)cc2)cc(C(F)(F)F)n1CC1CCCO1)C1CCOCC1 (centres unmarked) [Example 070, 3-(4-Fluorophenyl)-N-methyl-1-(tetrahydro-furan-2-yl-methyl)-N-tetrahydro-pyran-4-yl-5-(trifluoromethyl)-1H-pyrrole-2-carboxylic acid amide] | 75 to 95 |  |
| CN(C(=O)c1c(-c2ccc(F)cc2)cc(C(F)(F)F)n1CC1CCCO1)C1CCS(=O)(=O)C1 (centres unmarked) [Example 071, N-(1,1-Dioxo-thiolan-3-yl)-3-(4-fluorophenyl)-N-methyl-1-(tetrahydro-furan-2-yl-methyl)-5-(trifluoromethyl)-1H-pyrrole-2-carboxylic acid amide] | 40 to 75 |  |
| CN(CC(C)(C)C)C(=O)c1c(-c2ccc(F)cc2)cc(C(F)(F)F)n1CC1CCCO1 (centres unmarked) [Example 073, N-(2,2-Dimethyl-propyl)-3-(4-fluorophenyl)-N-methyl-1-(tetrahydro-furan-2-yl-methyl)-5-(trifluoromethyl)-1H-pyrrole-2-carboxylic acid amide] | 75 to 95 |  |
| CN(CC(C)(C)CO)C(=O)c1c(-c2ccc(F)cc2)cc(C(F)(F)F)n1CC1CCCO1 (centres unmarked) [Example 074, 3-(4-Fluorophenyl)-N-(3-hydroxy-2,2-dimethyl-propyl)-N-methyl-1-(tetrahydro-furan-2-yl-methyl)-5-(trifluoromethyl)-1H-pyrrole-2-carboxylic acid amide] | 75 to 95 |  |
